Data: patent US12727608B2, “Stable liquid animal feed ingredient” (PURAC BIOCHEM B.V., priority 2020, dated 2026)

Columns and labels:
Type in all cases: cell-based
Details in all cases: Experiment 2; 72 hours at 30° C.
[1] = tested on: Streptococcus suis DSM 28762; assay: MIC determination (Bioscreen growth)
[2] = tested on: Streptococcus suis DSM 9682; assay: MIC determination (Bioscreen growth)
[3] = tested on: Clostridium perfringens ATCC 13124

Measured: MIC value

CC(O)CO (stereo not drawn) [MPG, 1,2-propanediol]
>405 ppm: all assays above
